{"source": "patent US20090270612A1", "about": "“Therapeutic Agent for Osteoporosis Using a Retinoid X Receptor-Related Compound” (priority 2005, published 2009)", "system": "OPG knockout mice", "assay": "Bone morphometry of lumbar trabecular bone and femoral cortical bone in OPG knockout mice given drug in feed", "format": "in vivo, mouse", "conditions": "0.03% drug in paste feed, 4 weeks", "protocol": "OPG knockout mice (6 week-old) were divided into 3 groups with 7 mice being prepared for each group. These mice were obtained from CLEA Japan, Inc. and categorized into three groups: control group (Cont), HX531 group (HX), and LE 135 group (LE). LE135 is a compound synthesized as a nuclear receptor […] (RAR) antagonist.\nPaste feed is prepared by adding sterile water into and softening sterilized pellets in a dish. HX531 group and LE135 group were provided with the paste feed in which a corresponding drug was mixed. The amount of feed provided per day was fixed at 3 g per mouse in a solid state. The amount of drugs was calculated at 0.03% to the feed weight. Although the paste feed was exchanged everyday, almost no feed was left in all groups. A drug was administered successively for 4 weeks, and mice were double-labeled with tetracyclines and calceins by an abdominal administration 4 days and 2 days before they were sacrificed.\nWhile bone morphometry of femur (cortical bone) and lumbar (trabecular bone) was conducted, a histological observation of femur was made. Furthermore, a blood sample was taken before the sacrifice to measure a bone formation marker.", "data": [{"smiles": "CN1c2ccc([N+](=O)[O-])cc2N=C(c2ccc(C(=O)O)cc2)c2cc3c(cc21)C(C)(C)CCC3(C)C", "note": "[HX531]", "values": [{"measurement": "bone mass in a lumbar trabecular bone by bone morphometry", "setting": "FIG. 1", "value": "large compared to the mice from the control group or mice provided with LE135"}, {"measurement": "trabecula number in a lumbar trabecular bone by bone morphometry", "setting": "FIG. 2", "value": "large compared to the mice from the control group or mice provided with LE135"}, {"measurement": "bone resorption rate in a lumbar trabecular bone by bone morphometry", "setting": "FIG. 7", "value": "significantly low"}, {"measurement": "osteoclast surface in a lumbar trabecular bone by bone morphometry", "setting": "FIG. 8", "value": "small compared to the mice from the control group"}, {"measurement": "rarefaction surface/cortical bone in a femoral cortical bone by bone morphometry", "setting": "FIG. 11", "value": "significantly low compared to the mice from the control group"}, {"measurement": "porous surface in a femoral cortical bone by bone morphometry", "setting": "FIG. 12", "value": "small"}]}]}
